Two molecules from patent US8329717B2, “Pyrimidine derivatives and their use for controlling undesired plant growth” (Bayer Cropscience AG, priority 2008, dated 2012) can be followed below.

The chromatographic logP is a lipophilicity value derived from retention on a column.

The subject of data set [1] is Abutilon theophrasti. The data set can be described thus: Pre-emergence herbicidal effect. The conditions noted are these: Dosage 320 g/ha, visual scoring after 3 weeks vs untreated controls, 100% = plants have died. The format is in vivo. In a few lines: (§1)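 Visual percent damage was rated 3 weeks after treatment against untreated plants, where 100% meant dead and 0% meant like controls. Compounds, formulated as WP or EC, were applied pre-emergence to the covering soil at 600 to 800 l/ha with 0.2% wetting agent; rates in g/ha.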

The subject of data set [2] is Alopecurus myosuroides. The data set can be described thus: Pre-emergence herbicidal effect. The format is in vivo. The conditions noted are these: Dosage 320 g/ha, visual scoring after 3 weeks vs untreated controls, 100% = plants have died. In short, it runs like this:
as §1

Data set [3] concerns Amaranthus retroflexus. Kind of data set: Pre-emergence herbicidal effect. The conditions noted are these: Dosage 320 g/ha, visual scoring after 3 weeks vs untreated controls, 100% = plants have died. The format is in vivo. In short, it runs like this: as §1
The subject of data set [4] is Avena fatua. The data set can be described thus: Pre-emergence herbicidal effect. The format is in vivo. The note with it: Dosage 320 g/ha, visual scoring after 3 weeks vs untreated controls, 100% = plants have died. In a few lines:
as §1

Data set [5] deals with Cyperus esculentus. Kind of data set: Pre-emergence herbicidal effect. In kind it is in vivo. The note with it: Dosage 320 g/ha, visual scoring after 3 weeks vs untreated controls, 100% = plants have died. In a few lines: as §1
For data set [6], the system named is Echinochloa crus-galli. Kind of data set: Pre-emergence herbicidal effect. The format is in vivo. The note with it: Dosage 320 g/ha, visual scoring after 3 weeks vs untreated controls, 100% = plants have died. In a few lines: as §1
Data set [7] has as its system Lolium multiflorum. The data set can be described thus: Pre-emergence herbicidal effect. In kind it is in vivo. The conditions noted are these: Dosage 320 g/ha, visual scoring after 3 weeks vs untreated controls, 100% = plants have died. In short, it runs like this: as §1
Data set [8] deals with Matricaria inodora. The data set can be described thus: Pre-emergence herbicidal effect. In kind it is in vivo. The note with it: Dosage 320 g/ha, visual scoring after 3 weeks vs untreated controls, 100% = plants have died. In a few lines:
as §1

Data set [9] relates to Setaria viridis. The data set can be described thus: Pre-emergence herbicidal effect. The format is in vivo. The conditions noted are these: Dosage 320 g/ha, visual scoring after 3 weeks vs untreated controls, 100% = plants have died. In short, it runs like this:
as §1

The test system of data set [10] is Stellaria media. The data set can be described thus: Pre-emergence herbicidal effect. The format is in vivo. The note with it: Dosage 320 g/ha, visual scoring after 3 weeks vs untreated controls, 100% = plants have died. In a few lines: as §1
The subject of data set [11] is Veronica persica. The data set can be described thus: Pre-emergence herbicidal effect. The format is in vivo. The conditions noted are these: Dosage 320 g/ha, visual scoring after 3 weeks vs untreated controls, 100% = plants have died. In a few lines:
as §1

Data set [12] relates to PHBPU. The data set can be described thus: Post-emergence herbicidal effect. In kind it is in vivo. The conditions noted are these: Dosage 320 g/ha, one-leaf stage, visual scoring after ca. 3 weeks vs untreated controls, 100% = plants have died. The method, then: 2. Post-Emergence Herbicidal Effect and Crop Plant Compatibility Seeds of monocotyledonous or dicotyledonous weed plants or crop plants are planted in wood-fiber pots in sandy loam, covered with earth and grown in a greenhouse under good growth conditions. 2 to 3 weeks after sowing, the test plants are treated in the one-leaf stage. The compounds according to the invention, formulated in the form of wettable powders (WP) or as emulsion concentrates (EC), are then sprayed onto the green plant parts as aqueous suspension or emulsion at a water application rate of 600 to 800 l/ha (converted) with the addition of 0.2% of wetting agent. The dosage of the compounds according to the invention is given in grams per hectare. After ca. 3 weeks' standing time of the test plants in the greenhouse under optimum growth conditions, the effect of the preparations is scored visually in comparison with untreated controls (herbicidal effect in percent (%): 100% effect=plants have died, 0% effect=as control plants).

The subject of data set [13] is Abutilon theophrasti. The data set can be described thus: Post-emergence herbicidal effect. In kind it is in vivo. The conditions noted are these: Dosage 320 g/ha, one-leaf stage, visual scoring after ca. 3 weeks vs untreated controls, 100% = plants have died. In short, it runs like this:
(§2)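 Percent effect rated visually about three weeks after spraying, where 0% equals untreated control growth and 100% equals plant death. Spraying was done at the one-leaf stage on greenhouse plants in sandy loam, using WP or EC formulations dosed in g/ha.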

Data set [14] deals with Alopecurus myosuroides. Kind of data set: Post-emergence herbicidal effect. In kind it is in vivo. The note with it: Dosage 320 g/ha, one-leaf stage, visual scoring after ca. 3 weeks vs untreated controls, 100% = plants have died. In short, it runs like this: as §2
Data set [15] concerns Amaranthus retroflexus. Kind of data set: Post-emergence herbicidal effect. The format is in vivo. The conditions noted are these: Dosage 320 g/ha, one-leaf stage, visual scoring after ca. 3 weeks vs untreated controls, 100% = plants have died. In short, it runs like this:
as §2

Data set [16] relates to Echinochloa crus-galli. Kind of data set: Post-emergence herbicidal effect. In kind it is in vivo. The note with it: Dosage 320 g/ha, one-leaf stage, visual scoring after ca. 3 weeks vs untreated controls, 100% = plants have died. In short, it runs like this:
as §2

Data set [17] concerns Lolium multiflorum. Kind of data set: Post-emergence herbicidal effect. The conditions noted are these: Dosage 320 g/ha, one-leaf stage, visual scoring after ca. 3 weeks vs untreated controls, 100% = plants have died. In kind it is in vivo. In short, it runs like this:
as §2

Data set [18] deals with Matricaria inodora. The data set can be described thus: Post-emergence herbicidal effect. The format is in vivo. The conditions noted are these: Dosage 320 g/ha, one-leaf stage, visual scoring after ca. 3 weeks vs untreated controls, 100% = plants have died. In a few lines: as §2
The subject of data set [19] is Setaria viridis. Kind of data set: Post-emergence herbicidal effect. The format is in vivo. The conditions noted are these: Dosage 320 g/ha, one-leaf stage, visual scoring after ca. 3 weeks vs untreated controls, 100% = plants have died. In short, it runs like this:
as §2

For data set [20], the system named is Stellaria media. Kind of data set: Post-emergence herbicidal effect. The conditions noted are these: Dosage 320 g/ha, one-leaf stage, visual scoring after ca. 3 weeks vs untreated controls, 100% = plants have died. The format is in vivo. In a few lines:
as §2

For data set [21], the system named is Veronica persica. Kind of data set: Post-emergence herbicidal effect. The format is in vivo. The conditions noted are these: Dosage 320 g/ha, one-leaf stage, visual scoring after ca. 3 weeks vs untreated controls, 100% = plants have died. In short, it runs like this: as §2
Data set [22] concerns Viola tricolor. Kind of data set: Post-emergence herbicidal effect. The conditions noted are these: Dosage 320 g/ha, one-leaf stage, visual scoring after ca. 3 weeks vs untreated controls, 100% = plants have died. In kind it is in vivo. In short, it runs like this:
as §2

The subject of data set [23] is Polygonum convolvulus. Kind of data set: Pre-emergence herbicidal effect. In kind it is in vivo. The note with it: Dosage 320 g/ha, visual scoring after 3 weeks vs untreated controls, 100% = plants have died. In short, it runs like this:
as §1

In data set [24] the test system is Viola tricolor. Kind of data set: Pre-emergence herbicidal effect. In kind it is in vivo. The note with it: Dosage 320 g/ha, visual scoring after 3 weeks vs untreated controls, 100% = plants have died. In a few lines:
as §1

Data set [25] has as its system Avena fatua. The data set can be described thus: Post-emergence herbicidal effect. The format is in vivo. The note with it: Dosage 320 g/ha, one-leaf stage, visual scoring after ca. 3 weeks vs untreated controls, 100% = plants have died. In short, it runs like this: as §2
The test system of data set [26] is Polygonum convolvulus. Kind of data set: Post-emergence herbicidal effect. The format is in vivo. The note with it: Dosage 320 g/ha, one-leaf stage, visual scoring after ca. 3 weeks vs untreated controls, 100% = plants have died. In short, it runs like this:
as §2

A short description of data set [27]: logp (HCOOH), chemicophysical data. The conditions noted are these: HCOOH (formic acid).

Molecules are shown by their SMILES.

For `Cc1nc(N[C@@H]2CCCc3ccccc32)nc(N)c1C#N` [Example 1.18], in data set [1], the “Pre-emergence herbicidal effect ABUTH” value was 100%. The “Pre-emergence herbicidal effect ALOMY” value in [2] is 100%. The “Pre-emergence herbicidal effect AMARE” value in data set [3] is reported as 100%. Further, in [4], the “Pre-emergence herbicidal effect AVEFA” value stood at 90%. In addition, the “Pre-emergence herbicidal effect CYPES” value in [5] worked out at 80%. Moreover, in data set [6], the “Pre-emergence herbicidal effect ECHCG” value came out at 100%. Besides, in data set [7], the “Pre-emergence herbicidal effect LOLMU” value turned out to be 100%. In addition, the “Pre-emergence herbicidal effect MATIN” value in data set [8] is reported as 100%. In addition, the “Pre-emergence herbicidal effect SETVI” value in data set [9] was determined as 100%. Besides, in data set [10], the “Pre-emergence herbicidal effect STEME” value is recorded as 100%. Moreover, the “Pre-emergence herbicidal effect VERPE” value in data set [11] was found to be 100%. Besides, in data set [12], the “Post-emergence herbicidal effect PHBPU” value is 80%. The “Post-emergence herbicidal effect ABUTH” value in data set [13] was determined as 85%. Also, in data set [14], the “Post-emergence herbicidal effect ALOMY” value was found to be 85%. Further, the “Post-emergence herbicidal effect AMARE” value in data set [15] is reported as 85%. In addition, the “Post-emergence herbicidal effect ECHCG” value in [16] was 87%. Further, the “Post-emergence herbicidal effect LOLMU” value in [17] is 87%. Further, the “Post-emergence herbicidal effect MATIN” value in data set [18] stood at 80%. For the same molecule, the “Post-emergence herbicidal effect SETVI” value in data set [19] worked out at 90%. Moreover, in [20], the “Post-emergence herbicidal effect STEME” value was determined as 93%. Also, in [21], the “Post-emergence herbicidal effect VERPE” value came to 83%. Besides, the “Post-emergence herbicidal effect VIOTR” value in [22] was found to be 85%.
Take `N#Cc1cnc(N[C@@H]2CCCc3ccccc32)nc1N` [Example 1.30, 4-Amino-2-[(1R)-1,2,3,4-tetrahydronaphthalen-1-ylamino]pyrimidine-5-carbonitrile]: in [2], the “Pre-emergence herbicidal effect ALOMY” value is reported as 100%. In data set [3], the “Pre-emergence herbicidal effect AMARE” value stood at 100%. Further, the “Pre-emergence herbicidal effect AVEFA” value in data set [4] was 100%. Also, in [6], the “Pre-emergence herbicidal effect ECHCG” value worked out at 100%. Besides, the “Pre-emergence herbicidal effect LOLMU” value in data set [7] is reported as 100%. Besides, the “Pre-emergence herbicidal effect MATIN” value in data set [8] amounted to 100%. In addition, the “Pre-emergence herbicidal effect POLCO” value in [23] amounted to 100%. Moreover, the “Pre-emergence herbicidal effect SETVI” value in data set [9] is recorded as 100%. In data set [10], the “Pre-emergence herbicidal effect STEME” value turned out to be 100%. Besides, the “Pre-emergence herbicidal effect VERPE” value in [11] was 100%. In data set [24], the “Pre-emergence herbicidal effect VIOTR” value is listed as 100%. The “Post-emergence herbicidal effect ALOMY” value in data set [14] is on record as 95%. For the same molecule, in data set [15], the “Post-emergence herbicidal effect AMARE” value is recorded as 93%. Further, the “Post-emergence herbicidal effect AVEFA” value in data set [25] was determined as 100%. Also, the “Post-emergence herbicidal effect ECHCG” value in data set [16] amounted to 100%. Moreover, the “Post-emergence herbicidal effect LOLMU” value in data set [17] was found to be 100%. Moreover, in data set [18], the “Post-emergence herbicidal effect MATIN” value is recorded as 80%. In [26], the “Post-emergence herbicidal effect POLCO” value came out at 80%. In addition, the “Post-emergence herbicidal effect SETVI” value in data set [19] is on record as 95%. Further, the “Post-emergence herbicidal effect STEME” value in data set [20] was found to be 80%. Also, the “Post-emergence herbicidal effect VERPE” value in data set [21] is listed as 90%. In data set [27], this molecule gave a chromatographic logP of 1.92.
